Measured values published in patent publication US5856506A, “Phosphatase inhibitors and methods of use thereof” (University of Pittsburgh, priority 1997, dated 1999).

What was measured:
Recombinant human CDC25B = experiment: CDC25B phosphatase assay, GST fusion protein, fluorescein diphosphate; assay type: biochemical; conditions: none = 100; 1 hour preincubation; concentration not given (0.3-100 μM tested)
Description: The compounds of the present invention are also capable of inhibiting dual specificity phosphatases, for example CDC25A and CDC25B. Phosphatases CDC25A and CDC25B are disclosed in U.S. Pat. No. 5,441,880. Inhibition of dual specificity phosphatases is defined herein as inhibition of the activity of CDC25A and/or CDC25B at a concentration of 100 μM of the inhibitor compound. In a preferred embodiment, the activity of the phosphatase is inhibited by at least 10%. In more preferred embodiments, the activity of the phophatase is inhibited by at least 25%, or even more preferably, by at least 50%. The ability of the compounds of the present invention to inhibit the phosphatases can be determined by measuring the effect of the compounds on the ability of CDC25 or CDC25B to dephosphorylate a substrate. Appropriate methods are known to those of ordinary skill in the art, and include, for example, calorimetric assays. A suitable assay is described in U.S. Pat. No. 5,441,880, the disclosure of which is incorporated herein by reference. […] The assay may be performed as a rapid calorimetric microtitration plate assay.
Compounds 1a-1r were assessed for ability to inhibit CDC25A and CDC25B activity. Recombinant human CDC25A and CDC25B were obtained as a glutahione-S-transferase (GST) fusion protein using human cDNA and standard molecular biological methods. The cDNA constructs are in a plasmid that is expressed in E. coli under the control of isopropyl-beta-D-[…] (IPTG). The bacterial pellet was disrupted by sonication, and centrifuged at 10,000×g. Using glutathione-agarose beads, the fusion protein was purified from postmicrosomal supernant fraction as described by Baratte et al. (1992) Anticancer Res. 12: 873-880. Phosphatase activity was assayed with a spectrofluorimeter under the following conditions: 1 unit (1 U=amount of protein that induces 33 fluoresence units/minute of product) of fusion protein in a final incubation mixture (150 μL) comprised of 25 mM Tris (pH=8.0), 5 mM EDTA, 33 μg/ml BSA, and 20 μM fluorescein diphosphate in 96-well microtiter plates. Plates were preincubated for 1 hour with 0 (control), 0.3, 1, 3, 10, 30, 100 μM compounds at room temperature. After the 1 hour incubation at room temperature, fluorescence of the fluorescein product (Ex. 485 nm; Em. 530 nm) were measured with a Biosystems Cytofluor II (Framingham, Mass.).

MDA-MB-231 cells = experiment: Cell cycle distribution by flow cytometry (propidium iodide); assay type: cell-based, human; conditions: for cell cycle distribution: 88 μM, MDA-MB-231
Text: FIGS. 10A-D depict cell cycle distribution of human breast cancer cells after treatment with compound 1f determined by flow cytometry. […] Fluorescence channel measures intracellular propidium iodide concentration, an index of DNA content. Horizontal bars are the gating positions that allow for cell cycle analysis. […] Open bars are control cells and black bars are cells treated with compound 1f. […] The mean values were obtained from three independent determinations. Open bars are control cells and black bars are cells treated with 88 μM compound 1f.
MDA-MB-231 cells (6.5×10^5 /cm^2) were plated and incubated at 37° C. for 48 h. The plating medium was then aspirated off, and medium containing a concentration of compound 1f that caused approximately 50% growth inhibition (88-100 μM) was added for 48 to 72 h. Untreated cells at a similar cell density were used as control populations. Single cell preparations were fixed in ice-cold 1% paraformaldehyde, centrifuged at 1,000×g for 5 min, resuspended in Puck's saline, centrifuged, and resuspended in ice-cold 70% ethanol overnight. The cells were removed from fixatives by centrifugation (1,000×g for 5 min) and stained with a 5 μg/mL propidium iodide and 50 μg/mL RNase A solution. Flow cytometry analyses were conducted with a Becton Dickinson FACS Star. Single parameter DNA histograms were collected for 10,000 cells, and cell cycle kinetic parameters calculated using DNA cell cycle analysis software version C (Becton Dickinson). Experiments at 72 h were performed at least 3 independent times.

## CCCCCCCCCC(=O)NC(CCC(=O)N(CCNC(=O)c1nc(-c2ccccc2)oc1-c1ccccc1)Cc1ccccc1)C(=O)O (stereo not shown) [Compound 1f]
Recombinant human CDC25B
  CDC25B activity remaining, percent of control: 15%
MDA-MB-231 cells; 48 h
  cell cycle distribution: prominent accumulation in the Gi phase with a concomitant decrease in both S and G2/M phases
MDA-MB-231 cells; 72 h
  cell cycle distribution: prominent accumulation in the G1 phase
MDA-MB-231 cells; MDA-MB-231, conclusion
  site of blockage in cell cycle progression: blockage in cell cycle progression is at the G1 checkpoint
